Assay results published in patent US20200216441A1, “PESTICIDALLY ACTIVE HETEROCYCLIC DERIVATIVES WITH SULFUR CONTAINING SUBSTITUENTS” (SYNGENTA PARTICIPATIONS AG, priority 2017, published 2020).

Legend:
[1] = system: Euschistus heros (Neotropical Brown Stink Bug); assay: whole plant or invertebrate; format: in vivo; conditions: 120 h, application rate of 200 ppm, N2 nymphs on sprayed soybean leaves, 5 days after infestation, read-out: effect in at least one of the two categories (mortality or growth inhibition)
[2] = system: Myzus persicae (Green Peach Aphid); assay: whole plant or invertebrate; format: in vivo; conditions: 144 h, test rate of 24 ppm, systemic, roots of infested pea seedlings in test solution, 6 days
[3] = system: Plutella xylostella (Diamond Back Moth); assay: whole plant or invertebrate; format: in vivo; conditions: 120 h, application rate of 200 ppm, L2 larvae on treated artificial diet, 5 days after infestation, read-out: effect in at least one of the two categories (mortality or growth inhibition)
[4] = system: Myzus persicae (Green Peach Aphid); assay: whole plant or invertebrate; conditions: foliar, 144 h
[5] = system: Spodoptera littoralis (Egyptian Cotton Leaf Worm); assay: whole plant or invertebrate; conditions: in Gossypium barbadense, foliar, 72 h, read-out: control (mortality, anti-feeding effect, growth inhibition)
[6] = system: Diabrotica Balteata (Corn Root Worm); assay: Diabrotica balteata (Corn Root Worm); conditions: in Zea mays, 96 h, read-out: effect in at least one of the two categories (mortality or growth inhibition)

CCS(=O)(=O)c1cc(O[C@H]2C[C@H](OC)C2)cnc1-c1nc2cc(C(F)(F)F)ncc2n1C [Compound P45, 2-[3-ethylsulfonyl-5-(3-methoxycyclobutoxy)-2-pyridyl]-3-methyl-6-(trifluoromethyl)imidazo[4,5-c]pyridine]
≥ 80%: percent effect (mortality or growth inhibition) at 200 ppm [1] | mortality at 24 ppm [2] | percent effect (mortality or growth inhibition) at 200 ppm [3] | mortality at 200 ppm [4] | mortality at 200 ppm [5]

CCOC(=O)Oc1cnc(-c2nc3cc(C(F)(F)F)ncc3n2C)c(S(=O)(=O)CC)c1 [Compound P84, ethyl [5-ethylsulfonyl-6-[3-methyl-6-(trifluoromethyl)imidazo[4,5-c]pyridin-2-yl]-3-pyridyl] carbonate]
≥ 80%: mortality at 200 ppm [5]

CCS(=O)(=O)c1cc(OC(F)(F)F)cnc1-c1nc2cc(C(F)(F)F)ncc2n1C [Compound P98, 2-[3-ethylsulfonyl-5-(trifluoromethoxy)-2-pyridyl]-3-methyl-6-(trifluoromethyl)imidazo[4,5-c]pyridine]
≥ 80%: percent effect (mortality or growth inhibition) at 200 ppm [1] | percent effect (mortality or growth inhibition) at 200 ppm [3] | mortality at 200 ppm [5] | mortality at 200 ppm [6]

CCS(=O)(=O)c1cc(O/N=C(\C)c2cc(F)cc(F)c2)cnc1-c1nc2cc(C(F)(F)F)ncc2n1C [Compound P96, (E)-1-(3,5-difluorophenyl)-N-[[5-ethylsulfonyl-6-[3-methyl-6-(trifluoromethyl)imidazo[4,5-c]pyridin-2-yl]-3-pyridyl]oxy]ethanimine]
≥ 80%: percent effect (mortality or growth inhibition) at 200 ppm [1] | percent effect (mortality or growth inhibition) at 200 ppm [3] | mortality at 200 ppm [5] | mortality at 200 ppm [6]

CCSc1cc(OC(C)C)cnc1-c1nc2cc(S(=O)(=O)C(F)(F)F)ncc2n1C [Compound P73, 2-(3-ethylsulfanyl-5-isopropoxy-2-pyridyl)-3-methyl-6-(trifluoromethylsulfonyl)imidazo[4,5-c]pyridine]
≥ 80%: percent effect (mortality or growth inhibition) at 200 ppm [1] | percent effect (mortality or growth inhibition) at 200 ppm [3] | mortality at 200 ppm [4] | mortality at 200 ppm [5] | mortality at 200 ppm [6]

CCS(=O)(=O)c1cc(OC)cnc1-c1nc2cc(C(F)(F)F)ncc2n1C [Compound P13, 2-(3-ethylsulfonyl-5-methoxy-2-pyridyl)-3-methyl-6-(trifluoromethyl)imidazo[4,5-c]pyridine]
≥ 80%: mortality at 24 ppm [2] | percent effect (mortality or growth inhibition) at 200 ppm [3] | mortality at 200 ppm [4] | mortality at 200 ppm [5] | mortality at 200 ppm [6]

CCS(=O)(=O)c1cc(OC(F)(F)C(=O)N(C)C)cnc1-c1nc2cc(C(F)(F)F)ncc2n1C [Compound P6, 2-[[5-ethylsulfonyl-6-[3-methyl-6-(trifluoromethyl)imidazo[4,5-c]pyridin-2-yl]-3-pyridyl]oxy]-2,2-difluoro-N,N-dimethyl-acetamide]
≥ 80%: percent effect (mortality or growth inhibition) at 200 ppm [1] | mortality at 24 ppm [2] | percent effect (mortality or growth inhibition) at 200 ppm [3] | mortality at 200 ppm [4] | mortality at 200 ppm [6]

CCS(=O)(=O)c1cc(OC2(C)COC2)cnc1-c1nc2cc(C(F)(F)F)ncc2n1C [Compound P4, 2-[3-ethylsulfonyl-5-(3-methyloxetan-3-yl)oxy-2-pyridyl]-3-methyl-6-(trifluoromethyl)imidazo[4,5-c]pyridine]
≥ 80%: percent effect (mortality or growth inhibition) at 200 ppm [1] | mortality at 24 ppm [2] | percent effect (mortality or growth inhibition) at 200 ppm [3] | mortality at 200 ppm [4] | mortality at 200 ppm [6]

CCS(=O)(=O)c1cc(OCC2CCC2)cnc1-c1nc2cc(C(F)(F)F)ncc2n1C [Compound P69, 2-[5-(cyclobutylmethoxy)-3-ethylsulfonyl-2-pyridyl]-3-methyl-6-(trifluoromethyl)imidazo[4,5-c]pyridine]
≥ 80%: percent effect (mortality or growth inhibition) at 200 ppm [1] | mortality at 200 ppm [4] | mortality at 200 ppm [5] | mortality at 200 ppm [6]

CCSc1cc(OCC(F)F)cnc1-c1nc2cc(C(F)(F)F)ncc2n1C [Compound P81, 2-[5-(2,2-difluoroethoxy)-3-ethylsulfanyl-2-pyridyl]-3-methyl-6-(trifluoromethyl)imidazo[4,5-c]pyridine]
≥ 80%: percent effect (mortality or growth inhibition) at 200 ppm [1] | mortality at 24 ppm [2] | percent effect (mortality or growth inhibition) at 200 ppm [3] | mortality at 200 ppm [5] | mortality at 200 ppm [6]

CCSc1cc(OC(C)C)cnc1-c1nc2cc(SC(F)(F)F)ncc2n1C [Compound P74, 2-(3-ethylsulfanyl-5-isopropoxy-2-pyridyl)-3-methyl-6-(trifluoromethylsulfanyl)imidazo[4,5-c]pyridine]
≥ 80%: percent effect (mortality or growth inhibition) at 200 ppm [1] | percent effect (mortality or growth inhibition) at 200 ppm [3] | mortality at 200 ppm [4] | mortality at 200 ppm [5] | mortality at 200 ppm [6]

CCS(=O)(=O)c1cc(OC2COC2)cnc1-c1nc2cc(C(F)(F)F)ncc2n1C [Compound P1, 2-[3-ethylsulfonyl-5-(oxetan-3-yloxy)-2-pyridyl]-3-methyl-6-(trifluoromethyl)imidazo[4,5-c]pyridine]
≥ 80%: percent effect (mortality or growth inhibition) at 200 ppm [1] | mortality at 24 ppm [2] | percent effect (mortality or growth inhibition) at 200 ppm [3] | mortality at 200 ppm [4] | mortality at 200 ppm [6]

CCS(=O)(=O)c1cc(OC(C)C)ccc1-c1nc2cc(C(F)(F)F)ncc2n1C [Compound P108, 2-(2-ethylsulfonyl-4-isopropoxy-phenyl)-3-methyl-6-(trifluoromethyl)imidazo[4,5-c]pyridine]
≥ 80%: percent effect (mortality or growth inhibition) at 200 ppm [1] | percent effect (mortality or growth inhibition) at 200 ppm [3] | mortality at 200 ppm [4] | mortality at 200 ppm [5] | mortality at 200 ppm [6]

C#CC(C)(C)Oc1cnc(-c2nc3cc(C(F)(F)F)ncc3n2C)c(SCC)c1 [Compound P82, 2-[5-(1,1-dimethylprop-2-ynoxy)-3-ethylsulfanyl-2-pyridyl]-3-methyl-6-(trifluoromethyl)imidazo[4,5-c]pyridine]
≥ 80%: percent effect (mortality or growth inhibition) at 200 ppm [1] | mortality at 200 ppm [5] | mortality at 200 ppm [6]

CCSc1cc(OC(C)C)cnc1-c1nc2cc(C(F)(F)F)ncc2n1C [Compound P27, 2-(3-ethylsulfanyl-5-isopropoxy-2-pyridyl)-3-methyl-6-(trifluoromethyl)imidazo[4,5-c]pyridine]
≥ 80%: percent effect (mortality or growth inhibition) at 200 ppm [3] | mortality at 200 ppm [4] | mortality at 200 ppm [5] | mortality at 200 ppm [6]

CCS(=O)(=O)c1cc(OCC(C)=O)cnc1-c1nc2cc(C(F)(F)F)ncc2n1C [Compound P65, 1-[[5-ethylsulfonyl-6-[3-methyl-6-(trifluoromethyl)imidazo[4,5-c]pyridin-2-yl]-3-pyridyl]oxy]propan-2-one]
≥ 80%: percent effect (mortality or growth inhibition) at 200 ppm [1] | mortality at 24 ppm [2] | percent effect (mortality or growth inhibition) at 200 ppm [3] | mortality at 200 ppm [4] | mortality at 200 ppm [6]

CCS(=O)(=O)c1cc(OC(C)(C)CS(C)(=O)=O)cnc1-c1nc2cc(C(F)(F)F)ncc2n1C [Compound P49, 2-[5-(1,1-dimethyl-2-methylsulfonyl-ethoxy)-3-ethylsulfonyl-2-pyridyl]-3-methyl-6-(trifluoromethyl)imidazo[4,5-c]pyridine]
≥ 80%: percent effect (mortality or growth inhibition) at 200 ppm [1] | mortality at 24 ppm [2] | percent effect (mortality or growth inhibition) at 200 ppm [3] | mortality at 200 ppm [4]

CCS(=O)(=O)c1cc(OS(=O)(=O)C(F)(F)F)cnc1-c1nc2cc(C(F)(F)F)ncc2n1C [Compound P92, [5-ethylsulfonyl-6-[3-methyl-6-(trifluoromethyl)imidazo[4,5-c]pyridin-2-yl]-3-pyridyl] trifluoromethanesulfonate]
≥ 80%: mortality at 200 ppm [5]

CCOc1cnc(-c2nc3cc(C(F)(F)F)ncc3n2C)c(S(=O)(=O)CC)c1 [Compound P12, 2-(5-ethoxy-3-ethylsulfonyl-2-pyridyl)-3-methyl-6-(trifluoromethyl)imidazo[4,5-c]pyridine]
≥ 80%: mortality at 24 ppm [2] | percent effect (mortality or growth inhibition) at 200 ppm [3] | mortality at 200 ppm [4] | mortality at 200 ppm [5] | mortality at 200 ppm [6]
